Legend:
[1] = system: E. coli imp-; test: E. coli imp- bacterial growth assay (Tier I antimicrobial); format: cell-based; conditions: Escherichia coli, read-out: inhibition in the E. coli procedure
Protocol: The strain E. coli imp- obtained from Spencer Benson (Sampson, B. A., Misra, R. & Benson, S. A., Genetics, 1989, 122, 491-501, Identification and characterization of a new gene of Escherichia coli K-12 involved in outer membrane permeability) is used in this bacterial growth assay. To initiate the exponential phase of bacterial growth prior to the assay, a sample of bacteria is grown for 6 hours in Mueller Hinton II Broth (BBL 12322) at 37° C. then re-inoculated into fresh media and grown overnight at 37° C. The bacterial cells are collected by centrifugation for 10 minutes at 3200 rpm, diluted and absorbance read at 595 nm. Bacteria diluted in 2× Mueller Hinton II Broth (75 μL) are added to the compound mixtures (75μL) for a total volume of 150 μL. The assays are performed in 96-well microplates with approximately 1×10^4 colony forming units (CFU) per well. The plates are incubated at 37° C. and growth monitored over a 24 hour period by measuring the optical density at 595 nm using a BioRad model 3550 UV microplate reader. The percentage of growth relative to a well containing no compound is determined. Ampicillin and tetracycline antibiotic controls are concurrently tested in each screening assay.
Compounds are assayed in duplicate at a single dose. […]

[2] = system: S. pyogenes [American Type Culture Collection (ATCC) # 14289]; test: Streptococcus pyogenes bacterial growth assay (Tier I antimicrobial); format: cell-based; conditions: read-out: inhibition in the S. pyogenes procedure
Protocol: S. pyogenes [American Type Culture Collection (ATCC) # 14289] is used in this bacterial growth assay. To initiate the exponential phase of bacterial growth prior to the assay, a sample of bacteria is grown for 6 hours in Todd Hewitt Broth (Difco 0492-17-6) at 37° C. then re-inoculated into fresh media and grown overnight at 37° C. The bacterial cells are collected by centrifugation for 10 minutes at 3200 rpm, diluted and absorbance read at 595 nm. Bacteria diluted in 2× Todd-Hewitt Broth (75 μL) are added to the compound mixtures (75 μL) for a total volume of 150 μL. The assays are performed in 96-well microplates with approximately 1×10^4 colony forming units (CFU) per well. The plates are incubated at 37° C. and growth monitored over a 24 hour period by measuring the optical density at 595 nm using a BioRad model 3550 UV microplate reader. The percentage of growth relative to a well containing no test compound or library is determined. Ampicillin and tetracycline antibiotic controls are concurrently tested in each screening assay.
Compounds are assayed in duplicate at a single dose. Compounds which show inhibitory activity are re-tested in duplicate at multiple doses to determine minimum inhibitory concentration (MIC).

NC(=O)CN(Cc1cccc(C(F)(F)F)c1)Cc1cccc(CN(CCNCCCO)Cc2cccc(C(F)(F)F)c2)n1 [Example 66]
inhibition at 100 µM [1]: 87% | inhibition at 100 µM [2]: 95%

N=C(N)NCc1cccc(CN(CCNCCCO)Cc2cccc(C(F)(F)F)c2)n1 [Example 71]
inhibition at 100 µM [2]: 95%

— patent US6191273A, “Substituted cyclic compounds and mixtures comprising same” (Isis Pharmaceuticals, Inc., priority 1998, dated 2001)
